{"source": "paper PMC6781309", "about": "“Assessing Drug Interaction and Pharmacokinetics of Loxoprofen in Mice Treated with CYP3A Modulators” (Pharmaceutics, 2019)", "key": {"[1]": {"assay": "Plasma pharmacokinetics of LOX, cis-LOX and trans-LOX after oral LOX in mice pretreated with DEX, KTC or vehicle", "format": "in vivo, Male ICR mice", "details": "mouse plasma, LOX 20 mg/kg oral, mean ± SE, n = 3", "description": "The acclimatized animals were divided into eight groups, with each group containing 3 mice: groups I and II, vehicle (corn oil); groups III and IV, DEX-treated; groups V and VI, vehicle (10% Ethanol); and groups VII and VIII, KTC-treated group. […] Then, animals were fasted for 12 hours with free access to water before starting the experiment. […]\nAfter the oral administration of LOX, blood from groups I, III, V, and VII was collected from the tail at 0, 5, 10, 15, 30, 60, 120, and 240 min post-administration and placed into sodium heparin-containing tubes. After the last blood collection, the mice were sacrificed by cervical dislocation. Plasma was then prepared by centrifuging the blood at 4000× g for 15 min at 4 °C and stored at −80 °C until analysis. For analysis, each sample was prepared by mixing plasma (10 µL) and 90 µL of ACN containing 0.1% formic acid and 5 µM of tolbutamide as an internal standard (IS). […] Finally, 10 µL of sample supernatant was injected into the LC-MS/MS system. The PK parameters (the maximum plasma concentration [Cmax], time to reach the maximum plasma concentration [Tmax], elimination half-life [T1/2], and area under the plasma concentrations [AUC]) were analyzed by WinNonlin software (Version 2.1, Scientific Consulting, Louisville, KY, USA).\nA Shimadzu Prominence UFLC system (Kyoto, Japan) connected to a TSQ vantage triple quadrupole mass spectrometer with a HESI-II spray source incorporated with a DGU-20A5 degasser, an LC-20AD pump, a SIL-20A autosampler, and a CTO-20A column oven was used for the analyses. A shim-pack GIS C18 column (150 × 3.0 mm, […]) was used to separate analytes in the samples. Mobile phases A and B were composed of water with formic acid and ACN with 0.1% formic acid, respectively, and the flow rate was 0.50 mL/min at 40 °C. The gradient conditions were as follows: 20% of B between 0 and 0.25 min, 20–80% of B between 0.25 and 9.75 min, 80–20% of B between 9.75 and 10 min, and 20% of B between 10 and 13 min. The MS was operated under the following conditions: electrospray ionization in negative mode at 3.0 kV, capillary temperature at 350 °C, vaporizer temperature at 300 °C, sheath gas pressure at 35 Arb, and auxiliary gas pressure at 10 Arb. Finally, Xcalibur software (Thermo Fisher Scientific Inc., Waltham, MA, USA) was used for data analysis."}, "[2]": {"assay": "Relative concentration of LOX and its metabolites in hepatic portal vein plasma 10 min post-LOX (HRMS)", "format": "in vivo, Male ICR mice", "details": "hepatic portal vein plasma 10 min after LOX 20 mg/kg oral, n = 3; for Relative concentration in plasma (DEX average % of area, VH corn oil = 100): DEX 40 mg/kg i.p. 3 days; for Relative concentration in plasma (KTC average % of area, VH 10% ethanol = 100): KTC 60 mg/kg i.p. single dose", "description": "The acclimatized animals were divided into eight groups, with each group containing 3 mice: groups I and II, vehicle (corn oil); groups III and IV, DEX-treated; groups V and VI, vehicle (10% Ethanol); and groups VII and VIII, KTC-treated group. […] Then, animals were fasted for 12 hours with free access to water before starting the experiment. After fasting, LOX (20 mg/kg) was administered orally to […].\nSimilarly, blood from groups II, IV, VI, and VIII was collected from the hepatic portal vein 10 min post-LOX administration to identify metabolites of LOX and to analyze drug–drug interactions. Plasma from these samples was prepared as explained above. Then, 300 µL of ACN having 0.1% formic acid and 5 µM of the IS were mixed with 100 µL of each plasma sample. […] Supernatants were transferred into tubes and dried using a Labconco Speed Vac (Labconco Corporation, Kansas City, MO, USA). […] Each supernatant was transferred into an LCMS vial, and 5 µL were injected into a high-resolution mass spectrometer (HRMS).\nHRMS coupled with ultrahigh performance liquid chromatography (UHPLC) was used to detect hydroxy-LOX and other metabolites of LOX. The UHPLC system, Dionex Ultimate 3000 (Dionex Softron GmbH, Germering, Germany) consisted of an HPG-3200SD Standard binary pump, a WPS 3000 TRS analytical autosampler, and a TCC-3000 SD column compartment. In this experiment, the HRMS was a Q Exactive Focus quadrupole-Orbitrap MS (Thermo Fisher Scientific, Bremen, Germany) equipped with a heated electrospray ionization (HESI-II) ion probe.\nLOX was detected as a deprotonated ion [M-H]^− at m/z 245.1175 in negative ion mode. Therefore, negative ion mode was used with the following optimized conditions for LOX: spray voltage of 2.5 kV, capillary temperature of 320 °C, auxiliary gas at 12 aux unit, aux gas heater temperature of 200 °C, sheath gas at 35 aux units, and S-lens RF level of 50. LOX and its metabolites were separated using a 150 mm × 2.1 mm, 2.6-μm reverse-phase liquid chromatography column, Kinetex® C18 column (Phenomenex, CA, USA) at 40 °C. Furthermore, MS-grade solvents were used as the mobile phase in gradient elution mode: 0.1% aqueous formic acid as Solvent A and 0.1% formic acid in ACN as Solvent B. The flow was set to 0.22 mL/min with a gradient condition of Solvent B as 10% between 0 and 0.5 min, 10–50% between 0.5 and 21.5 min, 50–95% between 21.5 and 22.5 min, 95% between 22.5 and 25.5 min, 95–10% between 25.5 and 25.6 min, and 10% between 25.6 and 30 min."}, "[3]": {"test_system": "CYP3A", "assay": "CYP activity in liver S9 of treated mice: midazolam 1'-hydroxylation", "details": "liver S9, KTC 60 mg/kg i.p. once, midazolam 5 µM, n = 3", "description": "(§1) Twenty-four hours after the last treatment, the liver was excised and homogenized with three volumes of ice-cold 0.1 M potassium phosphate buffer (pH 7.4). The supernatant fraction was then separated as the S9 fraction from the mixture by centrifugation at 9000× g at 4 °C and stored at −80 °C until use.\n(§2) To characterize the CYP activities in the harvested livers, phenacetin O-demethylation (using 80 µM of phenacetin) for CYP1A, dextromethorphan O-demethylation (using 5 µM of dextromethorphan) for CYP2D, and midazolam 1’-hydroxylation (using 5 µM of midazolam) for CYP3A were used as cocktail probe reactions. The level of protein in the S9 fraction was determined by Bradford assay. The cocktail probes were then incubated with 10 µL of each S9 fraction, potassium phosphate buffer (pH 7.4), and an NADPH generating system (NGS) in a final volume of 100 µL. After incubation for 30 min at 37 °C, ice-cold ACN containing 0.1% formic acid and IS (5 µM) was added to stop the reaction. Samples were then vortexed and centrifuged at 13,000× g for 10 min at 4 °C. Finally, the supernatants were transferred to LC-MS/MS vials for analysis."}, "[4]": {"test_system": "CYP2D", "assay": "CYP activity in liver S9 of treated mice: dextromethorphan O-demethylation", "format": "in vivo, Male ICR mice", "details": "liver S9, dextromethorphan 5 µM", "description": "as §1, §2"}, "[5]": {"test_system": "CYP1A", "details": "liver S9, phenacetin 80 µM", "experimental": "To characterize the CYP activities in the harvested livers, phenacetin O-demethylation (using 80 µM of phenacetin) for CYP1A, dextromethorphan O-demethylation (using 5 µM of dextromethorphan) for CYP2D, and midazolam 1’-hydroxylation (using 5 µM of midazolam) for CYP3A were used as cocktail probe reactions [21, 22]. The level of protein in the S9 fraction was determined by Bradford assay [23]. The cocktail probes were then incubated with 10 µL of each S9 fraction, potassium phosphate buffer (pH 7.4), and an NADPH generating system (NGS) in a final volume of 100 µL. After incubation for 30 min at 37 °C, ice-cold ACN containing 0.1% formic acid and IS (5 µM) was added to stop the reaction. Samples were then vortexed and centrifuged at 13,000× g for 10 min at 4 °C. Finally, the supernatants were transferred to LC-MS/MS vials for analysis."}, "[6]": {"details": "pretreated DEX 40 mg/kg i.p. 3 days"}, "[7]": {"details": "pretreated KTC 60 mg/kg i.p. single dose"}, "[8]": {"details": "pretreated VH (10% ethanol) i.p. single dose"}, "[9]": {"details": "pretreated VH (corn oil) i.p. 3 days"}}, "data": [{"smiles": "CC(C(=O)O)c1ccc(CC2CCCC2O)cc1", "note": "(stereo not drawn) [cis-LOX]", "values": [{"measurement": "AUC(0–60)", "setting": "[1]; [6]", "result": "29.9 ± 4.4", "unit": "µg·min/mL"}, {"measurement": "AUC(0–∞)", "setting": "[1]; [6]", "result": "31.5 ± 4.4", "unit": "µg·min/mL"}, {"measurement": "Cmax", "setting": "[1]; [6]", "result": "1100 ± 200", "unit": "ng/mL"}, {"measurement": "T1/2 (elimination half-life)", "setting": "[1]; [6]", "result": "13.9 ± 0.6", "unit": "min"}, {"measurement": "Tmax", "setting": "[1]; [6]", "result": "10.0 ± 1.0", "unit": "min"}, {"measurement": "AUC(0–60)", "setting": "[1]; [7]", "result": "49.0 ± 5.9", "unit": "µg·min/mL"}, {"measurement": "AUC(0–∞)", "setting": "[1]; [7]", "result": "51.9 ± 6.1", "unit": "µg·min/mL"}, {"measurement": "Cmax", "setting": "[1]; [7]", "result": "1600 ± 100", "unit": "ng/mL"}, {"measurement": "T1/2 (elimination half-life)", "setting": "[1]; [7]", "result": "13.4 ± 0.6", "unit": "min"}, {"measurement": "Tmax", "setting": "[1]; [7]", "result": "11.6 ± 0.8", "unit": "min"}, {"measurement": "AUC(0–60)", "setting": "[1]; [8]", "result": "36.0 ± 3.9", "unit": "µg·min/mL"}, {"measurement": "AUC(0–∞)", "setting": "[1]; [8]", "result": "38.4 ± 4.4", "unit": "µg·min/mL"}, {"measurement": "Cmax", "setting": "[1]; [8]", "result": "1200 ± 100", "unit": "ng/mL"}, {"measurement": "T1/2 (elimination half-life)", "setting": "[1]; [8]", "result": "13.3 ± 0.9", "unit": "min"}, {"measurement": "Tmax", "setting": "[1]; [8]", "result": "13.3 ± 0.8", "unit": "min"}, {"measurement": "AUC(0–60)", "setting": "[1]; [9]", "result": "72.7 ± 12.4", "unit": "µg·min/mL"}, {"measurement": "AUC(0–∞)", "setting": "[1]; [9]", "result": "75.8 ± 12.8", "unit": "µg·min/mL"}, {"measurement": "Cmax", "setting": "[1]; [9]", "result": "2400 ± 300", "unit": "ng/mL"}, {"measurement": "T1/2 (elimination half-life)", "setting": "[1]; [9]", "result": "12.3 ± 0.3", "unit": "min"}, {"measurement": "Tmax", "setting": "[1]; [9]", "result": "10.4 ± 0.7", "unit": "min"}, {"measurement": "Relative concentration in plasma (DEX average % of area, VH corn oil = 100)", "setting": "[2]", "result": "61.9 ± 3.9", "unit": "%"}, {"measurement": "Relative concentration in plasma (DEX average % of area, VH corn oil = 100)", "setting": "[2]; listed as M2", "result": 61.91, "unit": "%"}, {"measurement": "Relative concentration in plasma (KTC average % of area, VH 10% ethanol = 100)", "setting": "[2]", "result": "173.1 ± 5.8", "unit": "%"}, {"measurement": "Relative concentration in plasma (KTC average % of area, VH 10% ethanol = 100)", "setting": "[2]; listed as M2", "result": 173.08, "unit": "%"}]}, {"smiles": "CC(=O)N1CCN(c2ccc(OCC3COC(Cn4ccnc4)(c4ccc(Cl)cc4Cl)O3)cc2)CC1", "note": "(stereo not shown) [KTC, ketoconazole]", "values": [{"measurement": "Effect on the metabolism of CYP3A4 substrate (midazolam) compared to the VH group", "setting": "[3]", "result": "significantly decreased"}, {"measurement": "Metabolic activity of other CYP enzymes (CYP2D, dextromethorphan O-demethylation), VH vs treated", "setting": "[4]", "result": "unaffected"}]}, {"smiles": "C[C@@H]1C[C@H]2[C@@H]3CCC4=CC(=O)C=C[C@]4(C)[C@@]3(F)[C@@H](O)C[C@]2(C)[C@@]1(O)C(=O)CO", "note": "[DEX, dexamethasone]", "values": [{"measurement": "Metabolic activity of other CYP enzymes (CYP1A, phenacetin O-demethylation), VH vs treated", "setting": "[5]", "result": "unaffected"}, {"measurement": "Metabolic activity of other CYP enzymes (CYP2D, dextromethorphan O-demethylation), VH vs treated", "setting": "[4]", "result": "unaffected"}]}]}
